Measurements published in patent publication US10422775B2, “Methods for determining relative response factors for impurity analysis using liquid chromatography with absorbance and evaporative light scattering detection” (Waters Technologies Corporation, priority 2016, dated 2019).
Several values for one entry are separate records, joined by “and”; a condition that tells them apart may be missing. Equal values may be shown once.

Tests used:
[1] = Quantitation of by-product 4-methylcyclohexylamine by MS (SIR m/z 114.1) in acidic degradation of glimepiride; type: physicochemical; conditions: for 4-MeCHA / 4-MeCHA (%): by-product formed from glimepiride, acidic degradation
Description: (§1) The separation of glimepiride and related compounds B and C was achieved on a 2.1 mm×50 mm, 1.8 μm, ACQUITY UPLC HSS T3 C18 column (Waters Corporation) under isocratic conditions. The mobile phase was 0.1% (v/v) formic acid in 60:40 water/acetonitrile at a flow rate of 0.8 mL/min. The column temperature was 30° C. with mobile phase pre-heating. Injection volume was 4 μL. The PDA settings included wavelength of 228 nm, sampling rate of 20 points per second. The ELSD was set to a gas pressure of 25 psi, the nebulizer in Cooling mode, drift tube temperature of 55° C. and the gain set to 100 with a data rate of 10 points per second. The make-up pump was used for post-column addition of solvent using the ISM at a flow rate of 0.3 mL/min with 0.1% (v/v) formic acid in methanol. The mass detector (ACQUITY QDa, Waters Corp, USA) utilized positive electrospray ionization (ESI+), with a cone voltage set to 5 V. The capillary voltage was 1.4 kV and the sampling rate was 5 points per second. The mass range collected was 100-600 Da with additional single ion recording (SIR) channels were collected simultaneously for the following m/z=114.1 Da, 374.6 Da, 432.2 Da and 513.7 Da. The SIR channels were measured with a cone voltage of 5 V.
Additionally, standards of 4-Methylcylohexylamine for quantitation by mass spectrometry. Specifically, a solution of 4-methylcylcohexylamine was prepared at a concentration of 0.4 mg/mL in 25:75 water/methanol. Working standards were then prepared by diluting the stock with 25:75 water/methanol. Individual calibration standards were prepared in triplicate at 0.04% (w/w), 0.2%, 0.5%, 1%, 2% and 5%, of the sample concentration of 0.250 mg/mL. The labeled purity of 4-methylcylcohexylamine was 99.7%.
Mass detection was employed for confirmation of the degradation pathway and to reconcile mass balance differences. During the formation of both related compound B and related compound C, there is a loss of 4-methylcyclohexylamine (see FIG. 14).
Quantitation of 4-methylcyclohexylamine was achieved utilizing standards prepared from commercially available reagents. Working standards were prepared to cover the range from 0.04 to 10% (0.1 to 25 ug/mL). A single ion recording channel measuring the response for m/z=114.1 Da was used for quantitation. The working standard was present as a mixture of both the cis and trans geometric isomers. These isomers were partially separated chromatographically, therefore the sum of the isomers was used for the calibration curve. The calibration curve was quadratic and converted to a linear relationship using a log-log fit over the desired quantitation range with the parameters listed in the following table.
Using the calibration curve, 4-methylcylcohexylamine was quantified in the acidic and oxidative degradation reactions over the period of 5 days.

[2] = Example 2: forced degradation of glimepiride drug substance under basic hydrolysis conditions, UV % impurities and mass balance; type: physicochemical; conditions: for % Area (impurity peaks found in base hydrolysis): degradation peak in glimepiride drug substance
Description: (§2) The chromatographic system was an ultra-high performance liquid chromatography system, specifically, an ACQUITY UPLC H-Class system with a pump (ACQUITY Quaternary Solvent Manager (QSM)), an injector (ACQUITY Flow Through Needle (FTN) Autosampler) and a column manager (ACQUITY Column Manager). The autosampler was configured with a 50 μL extension loop. The seal wash was 90:10 water/methanol, purge solvent was methanol and the needle wash solvent was 0.1% (v/v) formic acid in 30:70 water/acetonitrile. Detection was performed with a photodiode array detector (ACQUITY UPLC PDA), an evaporative light scattering detector (ACQUITY UPLC ELSD) and a mass detector (ACQUITY QDa) (Waters, Milford, Mass.). The eluent flow path was plumbed from the column to a triple static tee (1:10 split flow) housed within a secondary pump (ACQUITY Isocratic Solvent Manager (ISM)). The tubing from the column to the tee was 22.5″ of 0.004″ ID tubing. In the first split, a portion of the flow was diverted to the PDA with 16″ of 100 μm ID fused silica tubing and then, in series, to the ELS detector with 12″ of 0.004″ ID PEEK tubing. Flow from the isocratic solvent manager was introduced into the second splitter, and the final portion of flow was diverted to the mass spectrometer via the detector probe (250 mm). The chromatography data system was Empower 3 FR3 (Waters, Milford, Mass.). The forced degradation was performed using a water bath (Isotemp) purchased from Fisher Scientific.
as §1
(§3) Over a period of 7 days, the drug substance was exposed to acidic, basic and oxidative conditions with goals of achieving approximately 10% degradation as quantified by UV. The samples were tested at 2 day intervals and analyzed by UV-ELS and MS.
Under basic hydrolysis conditions, the drug substance degraded rapidly, over a period of 1 day with >10% of degradation. […] In contrast to the previously described analyses, many smaller impurity peaks were observed.
(§4) Mass balance calculations were performed using the experimentally determined RRFs for acidic, oxidative and basic degradation conditions. […] Both the % impurity and recovery were impacted similarly, however, the implications for % impurity are greater, in that impurity reporting, identification and qualification thresholds can be impacted by as little as 0.05%.

[3] = Example 1: forced degradation (acid hydrolysis) of glimepiride with mass balance by UPLC-PDA using RRF; type: physicochemical; parameters: Amount: unit not given beside the values; conditions: acid hydrolysis 40° C.
Description: The controls and the samples that underwent acid hydrolysis were subjected to the following conditions.
Samples were analyzed using an ultra-high performance liquid chromatography system, specifically the ACUITY UPLC H-Class system from Waters Technologies Corporation. The system included photodiode array (PDA) and ELSD detectors, a quadrapole mass detector, specifically the Qda detector from Waters Technologies Corporation, and solvent and column managers. The PDA detector was used as a detector for UV-Vis absorbance. An ultra-high performance liquid chromatography column with 1.7 μm particle size and 2.1×50 mm column dimensions, specifically the ACUITY UPLC BEH C18 column from Waters Technologies Corporation, was used. The isocratic solvent manager was used with a flow rate of 0.3 mL/min and with 0.1% formic acid in methanol as a solvent. The following settings were used for the PDA and ELSD detectors.
Isocratic and gradients methods were developed for separation of impurities; however, the isocratic method was preferred as changing the solvent composition can affect the response and the size of droplets in ELSD. Mobile phase A was 0.1% (v/v) formic acid in water. Mobile phase B was 0.1% (v/v) formic acid in acetonitrile. The column temperature was 30° C. The injection volume was 2 μL. The flow rate was 0.8 mL/min. The isocratic tests included 60% mobile phase A and 40% mobile phase B. Conditions for the gradient tests are listed below. The system has a quaternary pump with four channels; however, only the A and B channels were used, which is why the C and D values are zero in the table below.
Two degradation impurities were present, which were labeled related compound B and related compound C. To ensure adequate separation and no co-elutions, peak purity was evaluated using a mass analysis window. FIG. 9 includes PDA peak purity and Mass analysis windows in the EMPOWER 3 data analysis software used to evaluate peak purity.
RRFs were calculated for the two impurities and the reciprocal of the RRF was used as a correction factor for each impurity to determine a corrected peak area for the impurity according to the following equation.
A reference sample was run by HPLC and the total corrected PDA peak area was determined for the reference sample as described below. The correction factor of the reciprocal of the RRF for an impurity was used to determine a corrected PDA peak area for each impurity in the reference sample. The total corrected PDA peak area was the sum of the corrected PDA peak area for each impurity and the PDA peak area for the API glimepiride. This total corrected PDA peak is the value used to calculate percentage recovery. Total Corrected peak area=peak areaAPI+ΣimpuritiesCorrected peak areaimpurity (8)
The degraded samples were run by HPLC and the correction factor of the reciprocal RRF for an impurity was used to obtain a corrected PDA peak area for each impurity in each degraded sample. For each degraded sample, a total corrected PDA peak area was calculated as the sum of the corrected PDA peak areas for the impurities and the PDA peak area for the API. The percentage recovery was the total corrected PDA peak area for the degraded sample divided by the total corrected peak are for the reference sample as indicated in the equation below.
Each peak area was determined based on the average of three different injections of the sample. The tables in FIG. 11 show example calculations of mass balance based on the experimental data.
The results of the molar mass balance calculations of data from the forced degradation studies using the RRF calculated in accordance with embodiments described herein are summarized in the table below and are graphically depicted in a chart in FIG. 12.

[4] = Example 2: forced degradation of glimepiride drug substance under acidic hydrolysis conditions, UV % impurities and mass balance; type: physicochemical; conditions: for % Impurities: UV
Description: as §2, §1, §3
Confirmation of the impurities was provided by the mass spectrometry.
as §4

[5] = Example 2: forced degradation of glimepiride drug substance under oxidative conditions (AIBN), UV % impurities and mass balance; type: physicochemical; conditions: for % Impurities: UV
Description: as §2, §1, §3
For example, FIG. 19 includes chromatograms from analysis of a glimepiride drug substance after 5 days of oxidation by AIBN. […] The third peak is a product of the AIBN oxidation (m/z 177.1)-*- as evidenced by analysis of the control. One of the unknown peaks present in the AIBN control (m/z=177.2 Da) was attributed to the reagent. As observed with the acidic hydrolysis of glimepiride, the by-product (m/z=114.1 Da) was also observed. In addition, the oxidation degradation produced two isobaric peaks as determined by the QDa measurement resulting in the same m/z values.
Mass balance calculations were performed using the experimentally determined RRFs for acidic, oxidative and basic degradation conditions. […] Both the % impurity and recovery were impacted similarly, however, the implications for % impurity are greater, in that impurity reporting, identification and qualification thresholds can be impacted by as little as 0.05%. […]

[6] = cited from earlier work
[7] = cited from earlier work; remark: listed apart in the source

CC1CCC(N)CC1 (centres unmarked) [4-MeCHA, 4-methylcyclohexylamine]
4-MeCHA ([1]; 1 day): 0.36 µg/mL | 4-MeCHA (%) ([1]; 1 day): 0.14% | 4-MeCHA ([1]; 3 days): 0.98 µg/mL | 4-MeCHA (%) ([1]; 3 days): 0.39% | 4-MeCHA ([1]; 5 days): 1.74 µg/mL | 4-MeCHA (%) ([1]; 5 days): 0.70%

CCC1=C(C)CN(C(=O)NCCc2ccc(S(N)(=O)=O)cc2)C1=O [Related compound B, 3-Ethyl-4-methyl-2-oxo-N-(4-sulfamoylphenethyl)-2,5-dihydro-1H-pyrrole-1-carboxamide]
% Area (impurity peaks found in base hydrolysis) ([2]; 1 day, UV): 1.83%

CCC1=C(C)CN(C(=O)NCCc2ccc(S(=O)(=O)NC(=O)NC3CCC(C)CC3)cc2)C1=O (stereo not drawn) [glimepiride, 1-[[4-[2[(3-ethyl-4-methyl-2-oxo-3pyrroline-1-carboxamido)ethyl]phenyl]-sulphony]-3-trans-(4-methylcyclohexyl)urea]]
Absolute Mass Balance Deficit ([3]; 1 day): −0.6 | Amount ([3]; 1 day, n = 3): 239.0 | Absolute Mass Balance Deficit ([3]; 3 days): −4.3 | Amount ([3]; 3 days, n = 3): 242.7 | Absolute Mass Balance Deficit ([3]; 5 days): −0.7 | Amount ([3]; 5 days, n = 3): 239.1 | Absolute Mass Balance Deficit ([3]; 7 days): −5.7 | Amount ([3]; 7 days, n = 3): 244.1 | Absolute Mass Balance Deficit ([3]; T = 0): 2.3 | Amount ([3]; T = 0, n = 3): 236.1 | % Impurities with RRF ([4]; 1 day): 1.95% | % Impurities ([4]; 1 day): 2.35% | % Impurities with RRF ([4]; 3 days): 5.14% | % Impurities ([4]; 3 days): 6.13% | % Impurities with RRF ([4]; 5 days): 8.15% | % Impurities ([4]; 5 days): 9.72% and 9.67% | % Impurities with RRF ([4]; 7 days): 16.69% | % Impurities ([4]; 7 days): 19.55% | % Impurities with RRF ([5]; 1 day): 1.45% | % Impurities ([5]; 1 day): 1.75% | % Impurities with RRF ([5]; 3 days): 4.05% | % Impurities ([5]; 3 days): 4.83% | % Impurities with RRF ([5]; 5 days): 6.28% | % Impurities ([5]; 5 days): 7.45% | % Impurities with RRF ([5]; 7 days): 8.42% | % Impurities ([5]; 7 days): 9.95% | % Impurities with RRF ([2]; basic hydrolysis, 1 day): 11.99% | % Impurities with RRF ([2]; basic hydrolysis, 3 days): 31.59% | % Impurities ([2]; basic hydrolysis, 3 days, UV): 33.45% | % Impurities with RRF ([2]; basic hydrolysis, 5 days): 51.92% | increase of recoveries on adding 4-methylcylcohexylamine ([1]; acidic hydrolysis conditions, over the time period): 0.2-1.1% | pKa value [6]: 4.32 | soluble in methanol [7]: 0.5 mg/mL

CCC1=C(C)CN(C(=O)NCCc2ccc(S(=O)(=O)NC(=O)OC)cc2)C1=O [related compound C, methyl((4-(2-(3-ethyl-4-methyl-2-oxo-2,5-dihydro-1H-pyrrole-1-carboxamido)ethyl)phenyl)sulfonyl)carbamate]
% Area (impurity peaks found in base hydrolysis) ([2]; 1 day, UV): not observed
